# Laboratory results reported in US11912693B2, “Compounds for modulating S1P1 activity and methods of using the same” (TREVENA, INC., priority 2017, dated 2024).
# Columns and labels:
# [1] = molecular target: T1, human sphingosine-1-phosphate receptor 1 (S1P1) (Homo sapiens (Human), UniProt P21453); test: Inhibition of cAMP production (HTRF cAMP HiRange), S1P1 CHO-K1 cells; assay type: cell-based; conditions: for Emax: CHO-K1, efficacy (SPAN) normalized to fingolimod, read-out: hS1P1 cAMP SPAN; for hS1P1 cAMP pEC50: inhibition of cAMP production, S1P1 CHO-K1 cells
# Method in brief: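 CHO-K1 cells stably co-expressing human S1P1 (C-terminal Prolink tag) and EA-β-arrestin2 were grown in AssayComplete Media 6 at 37° C. and 5% CO2, plated, and incubated overnight. Agonist-driven inhibition of intracellular cAMP was read by TR-FRET with the HTRF cAMP HiRange kit on a PheraStar reader. Potency is pEC50, and efficacy (SPAN) is normalized to fingolimod.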
# Target sequence in this assay (P21453 whole entry, looked up): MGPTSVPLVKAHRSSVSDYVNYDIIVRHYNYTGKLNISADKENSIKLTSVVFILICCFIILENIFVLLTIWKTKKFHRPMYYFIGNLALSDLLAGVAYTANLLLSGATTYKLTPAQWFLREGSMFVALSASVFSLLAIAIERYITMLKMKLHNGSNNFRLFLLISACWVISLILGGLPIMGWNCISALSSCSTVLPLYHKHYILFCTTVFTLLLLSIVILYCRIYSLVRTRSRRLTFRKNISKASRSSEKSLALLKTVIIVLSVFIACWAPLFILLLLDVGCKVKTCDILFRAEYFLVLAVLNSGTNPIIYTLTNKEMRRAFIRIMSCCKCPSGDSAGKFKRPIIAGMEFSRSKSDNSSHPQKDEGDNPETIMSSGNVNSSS
# [2] = molecular target: T1, human sphingosine-1-phosphate receptor 1 (S1P1); test: β-Arrestin2 recruitment assay (PathHunter), S1P1 CHO-K1 cells; assay type: cell-based; conditions: for Emax: CHO-K1, efficacy (SPAN) normalized to fingolimod, read-out: hS1P1 B-arrestin2 SPAN; for hS1P1 B-arrestin2 pEC50: β-arrestin2 recruitment, S1P1 CHO-K1 cells
# Method in brief: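 Enzyme-fragment complementation read-out: agonist-driven β-arrestin2 binding to ProLink-tagged human S1P1 in stable CHO-K1 cells restores β-galactosidase, measured 1 h at room temperature after a 60 min 37° C. compound incubation. Potency as pEC50, efficacy relative to fingolimod (SPAN).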
# Target sequence in this assay (P21453 whole entry, looked up): as above
# Target sequence in this assay (P32121 whole entry partner, looked up): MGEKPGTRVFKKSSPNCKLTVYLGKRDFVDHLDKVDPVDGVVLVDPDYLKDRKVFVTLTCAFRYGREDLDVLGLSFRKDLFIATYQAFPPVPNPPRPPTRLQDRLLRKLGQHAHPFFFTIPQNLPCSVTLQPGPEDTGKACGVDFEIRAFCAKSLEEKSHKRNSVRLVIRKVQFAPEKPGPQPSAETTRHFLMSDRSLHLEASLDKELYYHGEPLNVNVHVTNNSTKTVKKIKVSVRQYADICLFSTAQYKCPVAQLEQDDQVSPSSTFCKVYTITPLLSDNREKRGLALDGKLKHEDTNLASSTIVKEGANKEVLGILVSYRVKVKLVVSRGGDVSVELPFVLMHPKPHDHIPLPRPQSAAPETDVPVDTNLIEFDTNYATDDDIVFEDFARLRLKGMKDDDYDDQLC
SMILES,Emax [1] [%],hS1P1 cAMP pEC50 [1],Emax [2] [%],hS1P1 B-arrestin2 pEC50 [2]
"COc1cccnc1-c1nc(-c2ccc3c(c2)nnn3C(C)C)no1 [Compound 612, 3-(1-isopropyl-1H-benzo[d][1,2,3]triazol-5-yl)-5-(3-methoxypyridin-2-yl)-1,2,4-oxadiazole]",< 75,>6.5,> 75,>5
"COc1ccccc1-c1noc(-c2ccc3c(c2)NC(=O)CN3)n1 [Compound 614, 7-[3-(2-methoxyphenyl)-1,2,4-oxadiazol-5-yl]-1,2,3,4-tetrahydroquinoxalin-2-one]",,<6.5,,<5
"CCC1(CC)CC(=O)c2cc(-c3nc(-c4cnccn4)no3)ccc2O1 [Compound 617, 2,2-diethyl-6-(3-(pyrazin-2-yl)-1,2,4-oxadiazol-5-yl)chroman-4-one]",,<6.5,,<5
"CCC1(CC)CC(=O)c2cc(-c3nc(-c4ccc5ncoc5c4)no3)ccc2O1 [Compound 622, 6-(3-(benzo[d]oxazol-6-yl)-1,2,4-oxadiazol-5-yl)-2,2-diethylchroman-4-one]",,>6.5,,<5
"CCc1ccccc1-c1nc(-c2ccc3c(c2)nnn3C(C)(C)CO)no1 [Compound 624, 2-(5-(5-(2-ethylphenyl)-1,2,4-oxadiazol-3-yl)-1H-benzo[d][1,2,3]triazol-1-yl)-2-methylpropan-1-ol]",< 75,<6.5,> 75,<5
"CCCC1CC(=O)c2ccc(-c3nc(-c4cccnc4)no3)cc2O1 (stereo not drawn) [Compound 630, 2-propyl-7-[3-(pyridin-3-yl)-1,2,4-oxadiazol-5-yl]-3,4-dihydro-2H-1-benzopyran-4-one]",,<6.5,,<5
"Cn1cnc2ccc(-c3nnc(-c4ccc(NC(C)(C)CO)c(C#N)c4)o3)cc21 [Compound 634, 2-[(1-hydroxy-2-methylpropan-2-yl)amino]-5-[5-(1-methyl-1H-1,3-benzodiazol-6-yl)-1,3,4-oxadiazol-2-yl]benzonitrile]",,<6.5,,<5
"Cn1cnc2ccc(-c3nnc(-c4ccc(NCC(F)(F)CO)c(C#N)c4)o3)cc21 [Compound 635, 2-[(2,2-difluoro-3-hydroxypropyl)amino]-5-[5-(1-methyl-1H-1,3-benzodiazol-6-yl)-1,3,4-oxadiazol-2-yl]benzonitrile]",,>6.5,,>5
"CC(C)Nc1ccc(-c2nnc(-c3ccc4c(c3)C(=O)NCC4)o2)cc1C#N [Compound 638, 5-[5-(1-oxo-1,2,3,4-tetrahydroisoquinolin-7-yl)-1,3,4-oxadiazol-2-yl]-2-[(propan-2-yl)amino]benzonitrile]",,>6.5,,<5
"CCC1(CC)CC(=O)c2cc(-c3nc(-c4ccncn4)no3)ccc2O1 [Compound 639, 2,2-diethyl-6-(3-(pyrimidin-4-yl)-1,2,4-oxadiazol-5-yl)chroman-4-one]",,<6.5,,<5
"CCC1(CC)CC(=O)c2cc(-c3nc(-c4ncccn4)no3)ccc2O1 [Compound 640, 2,2-diethyl-6-(3-(pyrimidin-2-yl)-1,2,4-oxadiazol-5-yl)chroman-4-one]",,<6.5,,<5
"Cc1nccnc1-c1nc(-c2ccc3c(c2)nnn3C(C)(C)CO)no1 [Compound 641, 2-methyl-2-(5-(5-(3-methylpyrazin-2-yl)-1,2,4-oxadiazol-3-yl)-1H-benzo[d][1,2,3]triazol-1-yl)propan-1-ol]",< 75,<6.5,< 75,<5

# More lines, now with the values ahead:
Emax [1] [%],hS1P1 cAMP pEC50 [1],Emax [2] [%],hS1P1 B-arrestin2 pEC50 [2],SMILES
< 75,>6.5,< 75,>5,"Cc1ccsc1-c1nc(-c2ccc3c(c2)nnn3C(C)(C)CO)no1 [Compound 611, 2-methyl-2-(5-(5-(3-methylthiophen-2-yl)-1,2,4-oxadiazol-3-yl)-1H-benzo[d][1,2,3]triazol-1-yl)propan-1-ol]"
,<6.5,,<5,"Cc1ccncc1-c1noc(-c2ccc3c(c2)NC(=O)CN3)n1 [Compound 613, 7-[3-(4-methylpyridin-3-yl)-1,2,4-oxadiazol-5-yl]-1,2,3,4-tetrahydroquinoxalin-2-one]"
,>6.5,,>5,"COc1ncccc1-c1noc(-c2ccc3c(c2)nnn3C(C)C)n1 [Compound 619, 5-(1-isopropyl-1H-benzo[d][1,2,3]triazol-5-yl)-3-(2-methoxypyridin-3-yl)-1,2,4-oxadiazole]"
,>6.5,,>5,"CCC1(CC)CC(=O)c2cc(-c3nc(-c4cncnc4)no3)ccc2O1 [Compound 620, 2,2-diethyl-6-(3-(pyrimidin-5-yl)-1,2,4-oxadiazol-5-yl)chroman-4-one]"
,<6.5,,<5,"CCC1(CC)CC(=O)c2cc(-c3nc(-c4cccnn4)no3)ccc2O1 [Compound 621, 2,2-diethyl-6-(3-(pyridazin-3-yl)-1,2,4-oxadiazol-5-yl)chroman-4-one]"
> 75,<6.5,> 75,<5,"COc1ccccc1-c1nc(-c2ccc3c(c2)nnn3C(C)(C)CO)no1 [Compound 623, 2-(5-(5-(2-methoxyphenyl)-1,2,4-oxadiazol-3-yl)-1H-benzo[d][1,2,3]triazol-1-yl)-2-methylpropan-1-ol]"
< 75,<6.5,< 75,<5,"Cc1ccncc1-c1nc(-c2ccc3c(c2)nnn3C(C)(C)CO)no1 [Compound 625, 2-methyl-2-(5-(5-(4-methylpyridin-3-yl)-1,2,4-oxadiazol-3-yl)-1H-benzo[d][1,2,3]triazol-1-yl)propan-1-ol]"
,<6.5,,<5,"CC(C)(CO)n1nnc2cc(-c3noc(-c4ccncc4C(F)(F)F)n3)ccc21 [Compound 626, 2-methyl-2-(5-(5-(3-(trifluoromethyl)pyridin-4-yl)-1,2,4-oxadiazol-3-yl)-1H-benzo[d][1,2,3]triazol-1-yl)propan-1-ol]"
> 75,<6.5,> 75,<5,"COc1cccnc1-c1noc(-c2ccc3c(c2)nnn3C(C)C)n1 [Compound 627, 5-(1-isopropyl-1H-benzo[d][1,2,3]triazol-5-yl)-3-(3-methoxypyridin-2-yl)-1,2,4-oxadiazole]"
,>6.5,,>5,"CC(C)Nc1ccc(-c2ncc(-c3ccc4[nH]c(=O)[nH]c4c3)cn2)cc1C#N [Compound 628, 2-(isopropylamino)-5-(5-(2-oxo-2,3-dihydro-1H-benzo[d]imidazol-5-yl)pyrimidin-2-yl)benzonitrile]"
,<6.5,,<5,"O=C1CNc2ccc(-c3nc(-c4cccnc4)no3)cc2N1 [Compound 629, 7-[3-(pyridin-3-yl)-1,2,4-oxadiazol-5-yl]-1,2,3,4-tetrahydroquinoxalin-2-one]"
,<6.5,,<5,"CCCCC1CC(=O)c2ccc(-c3nc(-c4cccnc4)no3)cc2O1 (stereo not drawn) [Compound 633, 2-butyl-7-[3-(pyridin-3-yl)-1,2,4-oxadiazol-5-yl]-3,4-dihydro-2H-1-benzopyran-4-one]"
,<6.5,,<5,"CC(C)(CO)n1nnc2cc(-c3noc(-c4ccc5nc[nH]c5c4)n3)ccc21 [Compound 642, 2-(5-(5-(1H-benzo[d]imidazol-6-yl)-1,2,4-oxadiazol-3-yl)-1H-benzo[d][1,2,3]triazol-1-yl)-2-methylpropan-1-ol]"
> 75,<6.5,< 75,<5,"CC(C)(CO)n1nnc2cc(-c3noc(-c4cccnc4F)n3)ccc21 [Compound 643, 2-(5-(5-(2-fluoropyridin-3-yl)-1,2,4-oxadiazol-3-yl)-1H-benzo[d][1,2,3]triazol-1-yl)-2-methylpropan-1-ol]"
> 75,<6.5,> 75,<5,"CC(C)(CO)n1nnc2cc(-c3noc(-c4cnccc4C(F)(F)F)n3)ccc21 [Compound 644, 2-methyl-2-(5-(5-(4-(trifluoromethyl)pyridin-3-yl)-1,2,4-oxadiazol-3-yl)-1H-benzo[d][1,2,3]triazol-1-yl)propan-1-ol]"
